Consider three molecules from patent US20230250070A1, “DIHYDROOXAZOLE AND THIOUREA DERIVATIVES MODULATING THE NLRP3 INFLAMMASOME PATHWAY” (AC IMMUNE SA, priority 2020, published 2023).

The test system of experiment [1] is NLRP3 inflammasome pathway. The experiment in a line: LPS-ATP induced peritonitis mouse model, IL-1β in peritoneal lavage. It is filed as in vivo, C57BL/6 female mice. The following applies: for inhibition of IL-1β release in peritoneal lavage samples (FIG. 1): mice dosed 1 mg/kg or 3 mg/kg by intraperitoneal injection, n=6, p<0.0001 vs vehicle-treated group; for % IL-1 beta inhibition vs vehicle (peritoneal lavage samples): mice, intraperitoneal 1 mg/kg or 3 mg/kg (dose not given), 15 min before ATP. How it is done: C57BL/6 female mice aged 6 to 8 weeks were randomized into experimental groups. Mice were challenged intraperitoneally with 50 µg/kg LPS. Two hours later, mice received i.p. 200 µL of ATP (Adenosine TriPhosphate) 50 mM, pH 7.2. Compounds were administered intraperitoneally at 1 mg/kg or 3 mg/kg, 15 minutes before ATP injection. Thirty minutes after ATP injection, animals were sacrificed by CO2. Cardiac blood was collected through heart puncture. Peritoneal lavage was performed with a total volume of 4 mL of sterile saline solution with intact peritoneum. IL-1b levels were assessed in peritoneal lavage samples via AlphaLisa. Results were expressed as % reduction compared to vehicle-treated group.
(§1) For IL-1β quantification, supernatants were analyzed using AlphaLISA kits according to the manufacturer’s instructions (Perkin Elmer AlphaLISA AL220F). Briefly, in a 384-well OptiPlate™ microplate, 5 µl of sample was mixed, with 20 µl of AlphaLISA Anti-Analyte Acceptor beads (10 µg/mL final) and Biotinylated Antibody Anti-Analyte (1 nM final). Then, incubated 60 minutes at RT, then 25 µL of 2X SA-Donor beads (40 µg/mL final) were added and incubated 30 minutes at RT in the dark. Reading was done using an EnVision-Alpha Reader (PerkinElmer).

Experiment [2] has as its system NLRP3 inflammasome pathway. The experiment is described as follows: NLRP3 inflammasome pathway activation assay, Nigericin stimulation, IL-1β release (AlphaLISA). It is filed as cell-based. As to conditions: PMA-differentiated, LPS-primed human monocyte-like cells, Nigericin 3.75 µM for 3 h. How it is done:
The following assays were used to determine the inhibitory activity of test compounds on the NLRP3 inflammasome pathway using common stimuli Nigericin (Invivogen) or monosodium urate crystals (MSU) (Invivogen).
Human monocyte-like cells were cultured in RPMI-1640 Glutamax medium supplemented with 10% heat inactivated FCS and 50 U/ml penicillin-streptomycin (Life Technologies).
Human monocyte-like cells were seeded at 75000 per well in a 96-well plate and were differentiated overnight into macrophages with 10 ng/ml PMA (Phorbol Myristate Acetate). The following day, medium containing 10 ng/ml LPS (Lipopolysaccharide) were added. After 3 hours of LPS priming, concentrations of test compound in the range from 100 µM to 6 nM were added 30 min prior to NLRP3 inflammasome pathway stimulation with Nigericin 3.75 µM or MSU 150 µg/ml for 3 h.
as §1
(§2) IC50(concentration corresponding to 50% inhibition) were determined using GraphPad Prism 8.
For orientation: Bead proximity is the source of the signal in Alpha formats.

Experiment [3] concerns NLRP3 inflammasome pathway. The experiment is described as follows: Human whole blood assay (LPS-ATP), IL-1β levels by AlphaLISA. The class given is cell-based. As to conditions: LPS priming, ATP activation 1 h, IL-1β in plasma. How it is done:
• Preliminary blood hemolysis assessment was performed before running the assay. Blood samples were centrifuged at 1000 g for 10 min. Then, 50 to 100 µL of blood were transferred into Corning™96-Well Clear flat bottom plate. Hemolysis was assessed via Tecan at 414 nm wavelength. Hemolysis O.D. values should be lower than 1. • Add 10 µL LPS 9× or CTRL following plate layout. • Add 80 µL of each whole blood/well in PP low-bind 96-well plate. • Incubate for 2h30 to 3 h at 37° C. and 5% CO2. • Add 10 µL of compounds 10× or control in wells following plate layout. • Incubate for 30 min at 37° C. and 5% CO2. • Add 11 µL ATP 10× or control in all wells following plate layout. • Incubate for 1 h at 37° C. and 5% CO2. • Collect 1 h timepoint → Centrifuge the plate 1000 g 10 min, collect the plasma (40 to 50 µL) and store at -20° C. • Measure IL-1β levels by AlphaLISA
as §1, §2

In experiment [4] the test system is NLRP3 inflammasome pathway. The experiment in a line: NLRP3 inflammasome pathway activation assay, MSU stimulation, IL-1β release (AlphaLISA). It is filed as cell-based. As to conditions: PMA-differentiated, LPS-primed human monocyte-like cells, MSU 150 µg/ml for 3 h.

A value given as a limit tells only on which side of the number the result lay.

For `CCOC(=O)C1(c2cc(C(C)(C)O)on2)CN=C(Nc2c3c(cc4c2CCC4)CCC3)O1` (single isomer, unassigned) [Example 16, Ethyl 2-((1,2,3,5,6,7-hexahydro-s-indacen-4-yl)amino)-5-(5-(2-hydroxypropan-2-yl)isoxazol-3-yl)-4,5-dihydrooxazole-5-carboxylate], in experiment [1], the “inhibition of IL-1β release in peritoneal lavage samples (FIG. 1)” value was “significant inhibition”. The “% IL-1 beta inhibition vs vehicle (peritoneal lavage samples)” value (“% IL-1 beta inhibition vs vehicle” for short) in experiment [1] is listed as 99%. The IC50 in experiment [2], in experiment [3] and in experiment [4] was below 1000 nM throughout.

With `CCOC(=O)C1(c2ccon2)CN=C(Nc2c3c(cc4c2CCC4)CCC3)O1` (single isomer, unassigned) [Example 21Bb], the “% IL-1 beta inhibition vs vehicle” value in experiment [1] was 73%. Further, the IC50 in experiment [3] and in experiment [4] was below 1000 nM throughout.

For the molecule `CC(C)(O)c1cc(C2(C(=O)O)CN=C(Nc3c4c(cc5c3CCC5)CCC4)O2)no1` (stereo not drawn) [Example 23, 2-((1,2,3,5,6,7-hexahydro-s-indacen-4-yl)amino)-5-(5-(2-hydroxypropan-2-yl)isoxazol-3-yl)-4,5-dihydrooxazole-5-carboxylic acid], the “inhibition of IL-1β release in peritoneal lavage samples (FIG. 1)” value in experiment [1] was “significant inhibition”. Moreover, the “% IL-1 beta inhibition vs vehicle” value in experiment [1] was above 99%. Also, the IC50 in experiment [2] was below 1000 nM; in experiment [3] it was 1000 to 10000 nM.

What is called IC50 is the concentration at which inhibition is half-maximal. Read a high IC50 as weaker potency in that assay.
